The source of these data is patent publication US7763626B2, “Compositions and method for enhancing the therapeutic activity of opiods in treatment of pain” (Trustees of Dartmouth College, priority 2004, dated 2010).

Type in all cases: in vivo, rat
Test [1] has as its system GLT-1. The test is described as follows: Immunohistochemical assessment of glutamate transporters in spinal cord. To be noted: twelve days after L5 spinal nerve transection; propentofylline 10 μg i.t. daily. How it is done:
(§1) Experiments were performed to determine how propentofylline-induced suppression of glial activation contribute to reduced behavioral hypersensitivity after nerve injury. In a preventative paradigm, 10 μg of propentofylline (Sigma) to male Sprague-Dawley rats in 40 μl of sterile saline, or saline vehicle alone was administered intrathecally (i.t.) by lumbar puncture at the L4/5 level under brief halothane anesthesia (n=6-8/group). Treatment began one hour prior to L5 spinal nerve transection and continued daily in the evening until day 4 or 12 post-transection. Rats received either an L5 spinal nerve transection or sham surgery on day 0. The development of mechanical allodynia was monitored as described above in the morning at approximately 15 hours post-propentofylline or saline injection. […]
(§2) For assessment of GFAP, GLT-1 and GLAST immunoreactivity, a separate group of animals (n=4/treatment) were anesthetized and transcardially perfused with 0.1 M PBS (phosphate-buffered saline), pH 7.4, followed by 4% paraformaldehyde in PBS on day 12 post-L5 spinal nerve transection. […] The sections were examined with an Olympus fluorescence microscope, and images were captured with a Q-Fire cooled camera. […]

Test [2] concerns GLAST. The test is described as above. To be noted: day 12 after L5 spinal nerve transection; propentofylline 10 μg i.t. daily. The procedure: as §1, §2
For test [3], the system named is IL-1β mRNA. The test can be described thus: RNase protection assay, cytokine mRNA at L5 lumbar spinal cord. To be noted: propentofylline 10 micrograms intrathecally for 5 days during induction of morphine tolerance.
Procedure: After behavioral testing for reactions to the combined treatment, rats were sacrificed and decapitated. An 18-gauge needle was inserted into the caudal end of the vertebral column and the spinal cord was expelled with ice-cold phosphate-buffered saline. The spinal cord was frozen immediately on dry ice and stored at −80° C. until homogenization. The L5 lumbar spinal cord was isolated from the intact frozen cord at the time of mRNA and protein quantification. Total RNA was isolated from the L5 spinal cord by the TRIzol extraction method (Invitrogen Corporation, Carlsbad, Calif).
Assessment of the temporal cytokine mRNA expression in the L5 lumber spinal cord was performed using a Ribonuclease Protection Assay technique. A Multiprobe RPAse kit was used (Pharmingen, San Diego, Calif.). Total RNA (15 μg) was hybridized to ^32P-labeled antisense RNA probes transcribed using the rat cytokine-1 (rCK-1) multiprobe template set resulting in double-stranded target RNA. After Rnase digestion, protected RNA and probe were resolved on a denaturing polyacrylamide gel and visualized by overnight autoradiography. Quantitative image analysis was employed to compare mRNA levels based on band intensities for each cytokine. The intensity of each band was measured using image analysis software and assigned an arbitrary unit based on the measured intensity levels. The value for the normalized quantity for each band was obtained by dividing by the L32 house-keeping gene control. Individual mRNA concentration was calculated as the ratio of the expression compared with saline-treated animals in which normal values were weighted as 1.
The test system of test [4] is Male Sprague-Dawley rats. The test is described as follows: Hot water tail-flick test, morphine withdrawal-induced thermal hyperalgesia. The procedure: Male Sprague-Dawley rats (175-200 grams, Harlan, Indianapolis, Ind.) were divided into two groups (n=8 per group). Rats received subcutaneous injections of either saline or morphine (10 mg/kg; Sigma, St. Louis, Mo.) twice daily at 0800 to 0900 and 1600-1700 hour for 5 days in order to induce opioid tolerance. Chronic morphine withdrawal-induced hyperalgesia and allodynia were assessed in the animals 16 hours after the last injection of morphine. Following the recording of morphine withdrawal-induced hyperalgesia and allodynia, animals were treated with morphine (5 microgram) acutely via lumbar intrathecal injection to study the expression of morphine tolerance. Acute analgesic activity or intrathecal morphine in morphine-tolerant and chronic aline-treated rats were evaluated by mechanical (Analgesy-Meter) and thermal (tail-flick) test paradigms. Behaviors recorded prior to the acute administration of intrathecal morphine served as the basal latency measures.
With an understanding of the effects of morphine alone, separate groups of rats (n=8) received with saline or morphine (10 mg/kg subcutaneously, twice daily for 5 days) and also received once daily injections (at 1100 to 1200 hour) of propentofylline (1 and 10 micrograms) or saline via direct lumbar puncture during the induction of morphine tolerance. Again, chronic morphine withdrawal-induced hyperalgesia and allodynia were assessed in the animals 16 hours after the last subcutaneous morphine injection. Following the recording of morphine withdrawal-induced hyperalgesia and allodynia, animals were treated with morphine (5 micrograms) acutely via lumbar puncture to study the expression of morphine tolerance. As before, the acute analgesic activity of intrathecal morphine in morphine-tolerant and saline-injected rats was evaluated by mechanical (Analgesy-Meter) and thermal (tail-flick) test paradigms. Behavior recorded prior to the acute administration of intrathecal morphine served as the basal latency.
Thermal nociceptive thresholds were evaluated by the hot water tail-flick test that has been described previously (Bian, D. et al. 1999. Brain Res. 831:55-63). The test consisted of immersing the tail of the rats in water maintained at 49° C. and then recording the latency to a rapid flick. A 15 second cut-off time was used. Again, the total number of responses elicited during three successive trials separated by at least 10 minutes was recorded and then expressed as the % maximal possible effect. The tester was again blinded to the test groups.

Test [5] deals with GLT-1 protein. The test can be described thus: Western blot analysis of ipsilateral lumbar spinal cord. Conditions: day 12. The procedure: (§3) Experiments were performed to determine how propentofylline-induced suppression of glial activation contribute to reduced behavioral hypersensitivity after nerve injury. In a preventative paradigm, 10 μg of propentofylline (Sigma) to male Sprague-Dawley rats in 40 μl of sterile saline, or saline vehicle alone was administered intrathecally (i.t.) by lumbar puncture at the L4/5 level under brief halothane anesthesia (n=6-8/group). Treatment began one hour prior to L5 spinal nerve transection and continued daily in the evening until day 4 or 12 post-transection. Rats received either an L5 spinal nerve transection or sham surgery on day 0. The development of mechanical allodynia was monitored as described above in the morning at approximately 15 hours post-propentofylline or saline injection. Rats were euthanized on day 4 or 12 post-transection and tissue was further processed by real time RT-PCR, Western blot, or immunohistochemistry for determination of levels and rate of synthesis of the glutamate transporters GLT-1 and GLAST.
(§4) Tissue was collected from 4-5 rats/group on postoperative days 4 or 12. […]
(§5) Protein obtained from L5 lumbar spinal cord was quantified using the Lowry method (DC assay, Bio-Rad, Richmond, Calif.). […]
In general terms: Immunoblotting shows a protein as a band on a membrane.

Test [6] has as its system GLAST protein. Described as above. Conditions: day 4. How it is done:
as §3, §4, §5

Turning to `CCCn1cnc2c1c(=O)n(CCCCC(C)=O)c(=O)n2C` [propentofylline], the “GLT-1 immunoreactivity, ipsilateral versus contralateral dorsal horns” value in test [1] was “no qualitative difference”. Also, in test [2], the “GLAST immunoreactivity on the ipsilateral side” value is recorded as “did not enhance”. Also, the “morphine-induced mRNA upregulation for IL-1β” value in test [3] is on record as “significantly attenuated”. The same compound gave a Tail-flick latency in test [4] (16 hours after last injection, morphine 10 mg/kg s.c. twice daily 5 days and/or propentofylline 10 micrograms intrathecally once daily 5 days) of 5.1 ± 0.3 s. In test [4] (16 hours after last morphine injection (10 mg/kg s.c. twice daily 5 days), propentofylline 1 and 10 micrograms intrathecally for 5 days during induction of tolerance), the “morphine withdrawal-induced noxious thermal hyperalgesia” value is “significantly attenuated”. Moreover, the “GLT-1 protein compared with L5 spinal nerve transection alone” value in test [5] is “significantly elevated”. Also, in test [6], the “GLAST protein compared with saline-treated injured rats” value is listed as “significant decrease”.
